Tests used:
[1] = system: P. aeruginosa ATCC 27853 (APAE001); experiment: MIC assay, CLSI broth microdilution; format: cell-based; details: Pseudomonas aeruginosa; ATCC27853; Mueller Hinton Broth, 35C, 20 hours
Method: (§1) Minimum inhibitory concentrations (MIC) were determined by reference Clinical and Laboratory Standards Institute (CLSI) broth microdilution methods per M7-A7 [2006]. Quality control ranges utilizing E. coli ATCC 25922, P. aeruginosa ATCC 27853 and S. aureus ATCC 29213, and interpretive criteria for comparator agents were as published in CLSI M100-S17 [2007]. Briefly, serial two-fold dilutions of the test compounds were prepared at 2× concentration in Mueller Hinton Broth. The compound dilutions were mixed in 96-well assay plates in a 1:1 ratio with bacterial inoculum. The inoculum was prepared by suspension of a colony from an agar plate that was prepared the previous day. Bacteria were suspended in sterile saline and added to each assay plate to obtain a final concentration of 5×10^5 CFU/mL. The plates were incubated at 35C for 20 hours in ambient air.

[2] = system: E. coli ATCC 25922 (AECO001); experiment: MIC assay, CLSI broth microdilution; format: cell-based; details: Escherichia coli; ATCC25922; Mueller Hinton Broth, 35C, 20 hours
Method: as §1

In the case of `NCC[C@H](O)C(=O)N[C@@H]1C[C@H](N)[C@@H](O[C@H]2O[C@H](CNCCO)CC[C@H]2N)[C@H](O[C@@H]2O[C@H](CO)[C@@H](O[C@H]3O[C@@H](CN)[C@@H](O)[C@H](O)[C@H]3N)[C@H]2O)[C@H]1O` [1/20], the MIC [1] is reported as ≤ 1 µg/mL and the MIC [2] is reported as ≤ 1 µg/mL.

From patent US8372813B2, “Antibacterial aminoglycoside analogs” (Achaogen, Inc., priority 2008, dated 2013)
